From BindingDB's records for doi:10.1021/acsmedchemlett.8b00532 (Sapienza University of Rome, 2019)

Assay: Inhibition of NHERF1 in human SW620 cells expressing NHERF1 assessed as inhibition cell growth incubated for 72 hrs by MTT assay

IC50: 19 µM
SMILES: Cc1cc([N+](=O)[O-])ccc1NS(=O)(=O)c1cc(Cl)ccc1Cl
